From patent EP0775489A1, “INTERLEUKIN-5 PRODUCTION INHIBITOR” (TAISHO PHARMACEUTICAL CO. LTD, priority 1994, dated 1996)

What was measured:
[1] = system: IL-5 production; assay: Inhibition of IL-5 production by D10.G4.1 Th2 cells stimulated with conalbumin and antigen presenting cells (IL-5 ELISA); assay type: cell-based; conditions: inhibitory effect on IL-5 production; murine Th2 clone D10.G4.1 cells, conalbumin as antigen, 48 hours incubation, IL-5 in supernatant by ELISA
Description: The action on IL-5 production in mice was examined according to the following method as disclosed in […], et al., Immunology Letters, Vol. 34, pp. 297-302 (1992). Murine Th2 clone (D10.G4.1 cells) was purchased from ATCC. Antigen presenting cells were prepared by suspending 1 x 10^7 spleen cells of a 8-week-old female C3H/HeN mice in 5 ml of an RPMI-1640 medium and incubated together with 50 μg/ml of mitomycin C (MMC) at 37°C for 30 minutes and then washed with three 50 ml portions of RPMI-1640. To RPMI-1640 containing 10% bovine serum were added 0.5 U of IL-2 (produced by Genzyme) and 5 x 10^-5 M of 2-mercaptoethanol to prepare a medium for tissue culture. A test compound was dissolved in dimethyl sulfoxide (DMSO) and diluted with the tissue culture medium to have a final DMSO concentration of 0.1% and a varied test compound concentration. In each well of a 96-well microtiter plate (produced by Corning Glass Works) were put each 50 μl/well of 4 x 10^5 cells/ml of D10.G4.1 cells, 2 x 10^6 cells/ml of MMC-treated antigen presenting cells, 400 μg/ml of conalbumin (produced by Sigma) as an antigen and the solution of the test compound in the tissue culture medium (to make 200 μl/well), and incubated in an incubator under 5% CO2 at 37°C for 48 hours. After completion of the incubation, the supernatant liquor of the culture was collected, and the cells were separated by centrifugation. The IL-5 in the supernatant liquor was determined with an IL-5 ELISA kit produced by ENDOGEN. […]

[2] = system: ICR male mice; assay: Oral toxicity (mortality) in mice; assay type: in vivo; conditions: orally administered to ICR male mice grouped in fives, dose level of 100 mg/kg
Source text: The compounds of Examples 1, 2, and 3 were orally administered to ICR male mice grouped in fives.

[3] = system: IL-5 production; conditions: reported in Japanese Journal of Allergology, 44(3-2), p. 424 (1993); judged not sufficient by the patent; cited from earlier work

Compound: 6-O-Methylerythromycin A 9-[O-(2-Chlorophenylmethyl)oxime] [Compound of Example 1]
- IC50 [1]: 270 nM
- death [2]: No death was observed

Compound: 6-O-Methylerythromycin A 9-[O-(3-Methoxy-4-t-butylbenzyl)oxime] 11,12-Cyclic Carbonate [Compound of Example 2]
- IC50 [1]: 120 nM
- death [2]: No death was observed

Compound: 11-Amino-9-N,11-N-cyclic ethylene-9-deoxo-11-deoxy-6-O-methylerythromycin A 9-Benzylamine 11-N,12-O-Cyclic Carbamate [Compound of Example 3]
- IC50 [1]: 120 nM
- death [2]: No death was observed

Compound: CC[C@H]1OC(=O)[C@H](C)[C@@H](O[C@H]2C[C@@](C)(OC)[C@@H](O)[C@H](C)O2)[C@H](C)[C@@H](O[C@@H]2O[C@H](C)C[C@H](N(C)C)[C@H]2O)[C@](C)(O)C[C@@H](C)C(=O)[C@H](C)[C@@H](O)[C@]1(C)O [Erythromycin]
- inhibitory activity on IL-5 production [3]: have an inhibitory activity on IL-5 production

Compound: CC[C@H]1OC(=O)[C@H](C)[C@@H](O[C@H]2C[C@@](C)(OC)[C@@H](O)[C@H](C)O2)[C@H](C)[C@@H](O[C@@H]2O[C@H](C)C[C@H](N(C)C)[C@H]2O)[C@](C)(O)C[C@@H](C)/C(=N\OCOCCOC)[C@H](C)[C@@H](O)[C@]1(C)O [Roxithromycin]
- inhibitory activity on IL-5 production [3]: have an inhibitory activity on IL-5 production
